One test has as its target T1, Protein Mdm4 (Homo sapiens, UniProt O15151).
T1 sequence (O15151 whole entry): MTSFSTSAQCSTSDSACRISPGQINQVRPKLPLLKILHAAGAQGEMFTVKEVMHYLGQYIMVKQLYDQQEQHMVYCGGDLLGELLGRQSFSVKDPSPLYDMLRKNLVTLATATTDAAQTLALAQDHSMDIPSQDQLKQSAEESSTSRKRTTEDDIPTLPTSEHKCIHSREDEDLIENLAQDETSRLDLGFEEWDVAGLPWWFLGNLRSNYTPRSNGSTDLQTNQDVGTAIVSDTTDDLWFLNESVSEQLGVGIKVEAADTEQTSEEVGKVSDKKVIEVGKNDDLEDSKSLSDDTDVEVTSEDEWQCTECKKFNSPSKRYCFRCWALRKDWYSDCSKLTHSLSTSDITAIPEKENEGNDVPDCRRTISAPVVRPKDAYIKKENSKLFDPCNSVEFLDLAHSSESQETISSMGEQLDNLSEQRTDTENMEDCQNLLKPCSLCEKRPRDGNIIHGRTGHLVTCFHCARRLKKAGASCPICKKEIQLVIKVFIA

Test [1] has as its target E3 ubiquitin-protein ligase Mdm2 (Homo sapiens, UniProt Q00987).
Test [2] relates to HCT-116. The test can be described thus: Induction of apoptosis in human HCT116 cells expressing wild type p53 assessed as early apoptotic cells expressing wild type p53 at 20 uM measured after 72 hrs by annexin V-FITC/propidium iodide staining-based flow cytometry analysis (reference value: 8.8 %). It is filed as functional. (In general: Flow cytometry measures light scatter and fluorescence of single cells or particles in a stream.)

Test [3] relates to HCT-116. As to the kind of experiment: Induction of apoptosis in human HCT116 cells assessed as late apoptotic cells expressing wild type p53 at 20 uM measured after 72 hrs by annexin V-FITC/propidium iodide staining-based flow cytometry analysis (reference value: 6.8 %). It is filed as functional.
The subject of test [4] is HCT-116. The test can be described thus: Induction of apoptosis in human HCT116 cells expressing wild type p53 assessed as live cells at 20 uM measured after 72 hrs by annexin V-FITC/propidium iodide staining-based flow cytometry analysis (reference value: 83.7 %). The class given is functional.
In test [5] the test system is HCT-116. The test can be described thus: Induction of apoptosis in human HCT116 cells expressing wild type p53 assessed as necrotic cells at 20 uM measured after 72 hrs by annexin V-FITC/propidium iodide staining-based flow cytometry analysis (reference value: 0.7 %). It is filed as functional.

Chain of E3 ubiquitin-protein ligase Mdm2 (Q00987 whole entry): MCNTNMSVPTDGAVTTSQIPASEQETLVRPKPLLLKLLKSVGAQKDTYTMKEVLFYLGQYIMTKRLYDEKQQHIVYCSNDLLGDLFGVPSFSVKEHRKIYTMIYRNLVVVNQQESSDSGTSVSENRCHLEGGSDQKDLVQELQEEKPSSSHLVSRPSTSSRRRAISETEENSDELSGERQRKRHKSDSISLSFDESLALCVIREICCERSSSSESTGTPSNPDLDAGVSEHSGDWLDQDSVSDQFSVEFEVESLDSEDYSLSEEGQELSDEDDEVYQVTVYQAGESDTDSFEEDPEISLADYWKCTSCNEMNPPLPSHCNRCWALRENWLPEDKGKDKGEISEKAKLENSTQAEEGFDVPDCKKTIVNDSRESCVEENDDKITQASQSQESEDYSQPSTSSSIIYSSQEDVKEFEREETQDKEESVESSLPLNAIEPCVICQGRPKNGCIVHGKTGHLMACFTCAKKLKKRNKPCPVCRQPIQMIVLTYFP

Take `CC(C)(C)NC(=O)C(NCc1ccc(OCc2ccccc2Br)cc1)c1c(C(=O)O)[nH]c2cc(Cl)ccc12` (stereo not drawn): on Protein Mdm4, the Ki result is recorded as “Not Active”.

Regarding `O=CN(Cc1ccc(OCc2ccc(Br)cc2)cc1)C(C(=O)NC12CC3CC(CC(C3)C1)C2)c1c(C(=O)O)[nH]c2cc(Cl)ccc12` (stereo not drawn), the Ki entry at Protein Mdm4 was “Not Active”.

For the molecule `CC(C)(C)NC(=O)C(c1c(C(=O)O)[nH]c2cc(Cl)ccc12)N(C=O)Cc1ccc(OCc2ccc([N+](=O)[O-])cc2)cc1` (stereo not drawn), the Ki entry (on Protein Mdm4; in test [1]) was “Not Active” each time.

As to `CCOC(=O)c1[nH]c2cc(Cl)ccc2c1C(C(=O)NC(C)(C)C)N(C=O)Cc1ccc(OCc2ccc(C)cc2)cc1` (stereo not drawn), the Activity turned out to be 37.3% in the test on HCT-116 [2], 48.8% in the test on HCT-116 [3], 13% with HCT-116 [4] and 0.9% in the test with HCT-116 [5].

`Cc1ccc(COc2ccc(CN(C=O)C(C(=O)NC(C)(C)C)c3c(C(=O)O)[nH]c4cc(Cl)ccc34)cc2)cc1` (stereo not drawn): the Activity with HCT-116 [2] amounted to 10.3%; with HCT-116 [3] it was 8.7%; with HCT-116 [4], 76.2%; with HCT-116 [5], 4.7%.

In the case of `CCOC(=O)c1[nH]c2cc(Cl)ccc2c1C(C(=O)NC(C)(C)C)N(C=O)Cc1ccc(OCc2ccccc2I)cc1` (stereo not drawn), the Activity with HCT-116 [2] was 6.3%; with HCT-116 [3], 6.2%; in the test with HCT-116 [4], 86.3%; in the test on HCT-116 [5], 1.3%.

`CC(C)(C)NC(=O)C(c1c(C(=O)O)[nH]c2cc(Cl)ccc12)N(C=O)Cc1ccc(OCc2ccncc2)cc1` (stereo not drawn): at Protein Mdm4, the Ki entry was “Not Active”.

Take `CC(C)(C)NC(=O)C(c1c(C(=O)O)[nH]c2cc(Cl)ccc12)N(C=O)Cc1cc(F)c(OCc2ccccc2)c(F)c1` (stereo not drawn): on Protein Mdm4, the Ki result was “Not Active”.

On to `CC(C)(C)NC(=O)C(c1c(C(=O)O)[nH]c2cc(Cl)ccc12)N(C=O)CCc1ccc(OCc2ccc(Br)cc2)cc1` (stereo not drawn), for which, at Protein Mdm4, the Ki entry is “Not Active”.

In the case of `CC(C)(C)NC(=O)C(c1c(C(=O)O)[nH]c2cc(Cl)ccc12)N(C=O)Cc1ccc(OCc2c(Cl)cccc2Cl)cc1` (stereo not drawn), the Ki entry at Protein Mdm4 is “Not Active”.

As for `CC(C)(C)NC(=O)C(c1c(C(=O)O)[nH]c2cc(Cl)ccc12)N(C=O)Cc1ccc(OCc2ccccc2I)cc1` (stereo not drawn), the Activity with HCT-116 [2] came out at 7.1%; with HCT-116 [3], 6.9%; with HCT-116 [4], 84.4%; in the test with HCT-116 [5], 1.3%.

Take `COc1cccc(COc2ccc(CN(C=O)C(C(=O)NC(C)(C)C)c3c(C(=O)O)[nH]c4cc(Cl)ccc34)cc2)c1` (stereo not drawn): the Activity in the test on HCT-116 [2] amounted to 13.5%; in the test on HCT-116 [3], 8.9%; in the test with HCT-116 [4], 76.8%; with HCT-116 [5] it was 0.8%.

`CC(C)(C)NC(=O)C(c1c(C(=O)O)[nH]c2cc(Cl)ccc12)N(C=O)CCCN1CCOCC1` (stereo not drawn): the Ki entry at Protein Mdm4 was “Not Active”.

Consider `CCOC(=O)c1[nH]c2cc(Cl)ccc2c1C(C(=O)NC(C)(C)C)N(C=O)Cc1ccc(OCc2ccc(Cl)c(Cl)c2)cc1` (stereo not drawn), for which the Activity was determined as 27.1% in the test with HCT-116 [2], 42.4% with HCT-116 [3], 30% in the test with HCT-116 [4] and 0.4% in the test with HCT-116 [5].

On to `O=CN(CCc1ccccc1)C(C(=O)NCCc1ccccc1)c1c(C(=O)O)[nH]c2cc(Cl)ccc12` (stereo not drawn), for which the Ki entry at Protein Mdm4 is listed as “Not Active”.

`CC(C)(C)NC(=O)C(c1c(C(=O)O)[nH]c2cc(Cl)ccc12)N(C=O)Cc1ccc(OCc2ccsc2)cc1` (stereo not drawn): the Ki entry (at Protein Mdm4; in test [1]) was “Not Active” each time.

Regarding `CCOC(=O)c1[nH]c2cc(Cl)ccc2c1C(C(=O)NC(C)(C)C)N(C=O)Cc1ccc(OCCc2ccccc2)cc1` (stereo not drawn), the Activity stood at 46.6% with HCT-116 [2], 40.2% in the test with HCT-116 [3], 12.6% in the test on HCT-116 [4] and 0.7% in the test on HCT-116 [5].

In the case of `O=CN(Cc1ccc(OCc2ccc(F)cc2)cc1)C(C(=O)NC12CC3CC(CC(C3)C1)C2)c1c(C(=O)O)[nH]c2cc(Cl)ccc12` (stereo not drawn), the Ki result (at Protein Mdm4; in test [1]) was “Not Active” each time.

Regarding `CCOC(=O)c1[nH]c2cc(Cl)ccc2c1C(C(=O)NC(C)(C)C)N(C=O)Cc1ccc(OCc2ccc(Br)cc2)cc1` (stereo not drawn), the Activity in the test with HCT-116 [2] is recorded as 42.7%; in the test on HCT-116 [3] it was 19.1%; in the test on HCT-116 [4] it was 37.4%; in the test on HCT-116 [5], 0.8%.

For the molecule `CC(=O)N(Cc1ccc(OCc2ccc(F)cc2)cc1)C(C(=O)NC1CCCCC1)c1c(C(=O)O)[nH]c2cc(Cl)ccc12` (stereo not drawn), at Protein Mdm4, the Ki result is recorded as “Not Active”.

In the case of `CC(C)(C)NC(=O)C(c1c(C(=O)O)[nH]c2cc(Cl)ccc12)N(C=O)Cc1ccc(OCc2ccc(Br)cc2)cc1` (stereo not drawn), the Activity came to 9.8% with HCT-116 [2], 11.6% with HCT-116 [3], 77.9% in the test with HCT-116 [4] and 0.7% in the test on HCT-116 [5].

In the case of `CC(=O)N(Cc1ccc(OCc2ccccc2)cc1)C(C(=O)NC12CC3CC(CC(C3)C1)C2)c1c(C(=O)O)[nH]c2cc(Cl)ccc12` (stereo not drawn), the Ki entry at Protein Mdm4 is listed as “Not Active”.

Regarding `CC(C)(C)NC(=O)C(c1c(C(=O)O)[nH]c2cc(Cl)ccc12)N(C=O)Cc1ccc(OCc2ccc(Cl)c(Cl)c2)cc1` (stereo not drawn), the Activity is 10% with HCT-116 [2], 7.7% in the test on HCT-116 [3], 81.2% with HCT-116 [4] and 1.1% in the test with HCT-116 [5].

Consider `CC(C)(C)NC(=O)C(c1c(C(=O)O)[nH]c2cc(Cl)ccc12)N(C=O)Cc1ccc(OCc2cc(F)cc(F)c2)cc1` (stereo not drawn), for which the Activity in the test with HCT-116 [2] is reported as 11.9%; in the test on HCT-116 [3], 7.9%; with HCT-116 [4] it was 79.6%; with HCT-116 [5], 0.7%.

For `CCOC(=O)c1[nH]c2cc(Cl)ccc2c1C(C(=O)NC(C)(C)C)N(C=O)Cc1ccc(OCc2ccccc2Br)cc1` (stereo not drawn), the Activity in the test with HCT-116 [2] stood at 32.3%; with HCT-116 [3] it was 57.2%; in the test on HCT-116 [4], 9.9%; with HCT-116 [5] it was 0.7%.

For `CCOC(=O)c1[nH]c2cc(Cl)ccc2c1C(C(=O)NC(C)(C)C)N(C=O)Cc1ccc(OCc2cccc(Cl)c2)cc1` (stereo not drawn), the Activity in the test with HCT-116 [2] was found to be 21.6%; in the test on HCT-116 [3] it was 42.7%; in the test with HCT-116 [4], 34.5%; with HCT-116 [5], 1.2%.

In the case of `O=CN(CCc1ccccc1)C(C(=O)NC12CC3CC(CC(C3)C1)C2)c1c(C(=O)O)[nH]c2cc(Cl)ccc12` (stereo not drawn), the Ki entry on Protein Mdm4 is “Not Active”.

In the case of `CCOC(=O)c1[nH]c2cc(Cl)ccc2c1C(C(=O)NC(C)(C)C)N(C=O)Cc1ccc(OCc2ccsc2)cc1` (stereo not drawn), the Ki result at Protein Mdm4 was “Not Active”.

Regarding `CCOC(=O)c1[nH]c2cc(Cl)ccc2c1C(C(=O)NC(C)(C)C)N(C=O)Cc1ccc(OCc2cccc(OC)c2)cc1` (stereo not drawn), the Activity turned out to be 8.3% with HCT-116 [2], 6.1% in the test with HCT-116 [3], 84.8% in the test with HCT-116 [4] and 0.8% in the test on HCT-116 [5].

Take `CC(C)(C)NC(=O)C(c1c(C(=O)O)[nH]c2cc(Cl)ccc12)N(C=O)Cc1ccc(OCc2cccnc2)cc1` (stereo not drawn): the Ki entry (at Protein Mdm4; in test [1]) was “Not Active” throughout.

`CCOC(=O)c1[nH]c2cc(Cl)ccc2c1C(C(=O)NC(C)(C)C)N(C=O)Cc1ccc(OCc2cc(F)cc(F)c2)cc1` (stereo not drawn): the Activity worked out at 45.2% in the test with HCT-116 [2], 40.2% in the test with HCT-116 [3], 14.1% in the test with HCT-116 [4] and 0.5% in the test on HCT-116 [5].

For the molecule `CC(C)(C)NC(=O)C(c1c(C(=O)NCCN2CCOCC2)[nH]c2cc(Cl)ccc12)N(C=O)Cc1ccc(OCc2ccccc2Br)cc1` (stereo not drawn), the Ki result on Protein Mdm4 is reported as “Not Active”.

Regarding `CC(C)(C)NC(=O)C(c1c(C(=O)O)[nH]c2cc(Cl)ccc12)N(C=O)Cc1ccc(OCc2cccc(Cl)c2)cc1` (stereo not drawn), the Activity with HCT-116 [2] was 10.2%; in the test with HCT-116 [3] it was 7.9%; in the test with HCT-116 [4], 81%; in the test on HCT-116 [5], 0.9%.

As for `CCOC(=O)c1[nH]c2cc(Cl)ccc2c1C(C(=O)NC(C)(C)C)N(C=O)Cc1ccc(NCc2ccc(Br)cc2)cc1` (stereo not drawn), the Activity with HCT-116 [2] was 15.2%; in the test with HCT-116 [3] it was 23.6%; in the test on HCT-116 [4], 58.6%; with HCT-116 [5], 2.6%. In addition, at Protein Mdm4, the Ki entry was “Not Active”.

Turning to `CC(C)(C)NC(=O)C(c1c(C(=O)O)[nH]c2cc(Cl)ccc12)N(C=O)Cc1ccc(OCCc2ccccc2)cc1` (stereo not drawn), the Activity in the test with HCT-116 [2] came to 8.1%; with HCT-116 [3] it was 10.7%; with HCT-116 [4] it was 80.7%; in the test with HCT-116 [5], 0.5%. At Protein Mdm4, the Ki entry is listed as “Not Active”.

For `CC(C)(C)NC(=O)C(c1c(C(=O)O)[nH]c2cc(Cl)ccc12)N(C=O)Cc1ccc(NCc2ccc(Br)cc2)cc1` (stereo not drawn), the Activity was 9.6% in the test on HCT-116 [2], 18.8% with HCT-116 [3], 65.6% in the test on HCT-116 [4] and 6% in the test on HCT-116 [5].

For `CC(C)(C)NC(=O)C(c1c(C(=O)O)[nH]c2cc(Cl)ccc12)N(C=O)Cc1ccc(OCc2ccccc2Br)cc1` (racemic), the Activity in the test on HCT-116 [2] is 15.4%; in the test with HCT-116 [3], 14.6%; in the test on HCT-116 [4], 69.1%; in the test with HCT-116 [5] it was 1%.

The values above are taken from ChEMBL document CHEMBL4359887, “Hitting on the move: Targeting intrinsically disordered protein states of the MDM2-p53 interaction” (Eur J Med Chem, 2019).
